These results are taken from patent publication US5696276A, “Process for preparing 5,8-dihydroxynaphthoquinone derivatives, novel 5,8-dihydroxynaphthoquinone derivatives and their use as anticancer agent” (Kuhnil Pharmaceutical Co., Ltd., priority 1993, dated 1997).

One test concerns L1210 cells. Put plainly: Cytotoxic activity against L1210 cells. Type of test: cell-based. The following applies: Mus musculus; L1210 cells, 48 hours, 37° C.; read-out: ED50, cytotoxic activity against L1210. In short, it runs like this:
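Log-phase L1210 cells (5×10^4 cells/ml) in Fisher medium exposed 48 h at 37 °C in CO2 to three dilutions of sample dissolved in ethanol or DMSO. Cells counted by haemacytometer; growth relative to control; ED50 (μg/ml) from linear regression of growth % on log concentration.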

A further test has as its system HL-60 cells. In words: Cytotoxic activity against HL-60 cells. Type of test: cell-based. As to conditions: Homo sapiens; HL-60 cells, 48 hours, 37° C.; read-out: ED50, cytotoxic activity against HL-60. As for the experimental part:
As in the test for the cytotoxic activity against L1210 cells, the test samples were dissoved in ethanol or dimethylsulfoxide in a certain concentration. 0.1 ml of the sample solution was mixed with 0.9 ml of a fresh medium to prepare the dilutions. To each two test tubes having a screw cap were added 100, 50, 25 μl, respectively, of the sample dilutions by means of a micropipet. To each test tube for the test group and the control group (2√n: n=number of the samples) was added 5 ml of the dilutions of HL-60 cells and K-562 cells which were cultured and activated before 24 hours from the beginning of experiment and then diluted in a concentration of 1×10^5 cells/mi. All test tubes were cultured for 48 hours in a CO2 incubator at 37° C. and then the number of cells was counted using a haemacytometer.
The ED50 value is defined as a concentration (μg/ml) of the sample which inhibits the growth of cancer cells by 50% of the control group and determined according to a method described in NIC's mannual (NIC=National Cancer Institue, U.S.A.). The growth rate Y(%) of cells in the presence of the test sample in each concentration was calculated according to the followign equation: […]
In the above equation, T means the average cell number per ml in the test group after incubation for 48 hours in the presence of the test samples in each concentration, C means the average cell number per ml in the control group after incubation for 48 hours, and Co means the average cell number per ml in the control group at the beginning of incubation. The Y(%) value at each concentration and log10 value of each concentration were obtained and the regression curve was constructed according to the following equation from those obtained values. In this case, when all the Y(%) value obtained at each concentration is greater than 55% or lower than 45%, the experiment was repeatedly conducted.
To construct the regression curve Y=A+BX the values A and B were obtained using the following equation. [formula]
In the above, the value N is the number of selected points which is greater than 2 and lower than, or identical with, the number of cencentration of the test sample, Xi is log(concentration) i, and Yi is the growth ratio at (concentration)i. The value of ED50 was obtained for those obtained slope and intercept.

For a further test, the system named is A549 cancer cells. Put plainly: Cytotoxic activity against A549 cancer cells (sulforhodamin B method). Type of test: cell-based. The following applies: Homo sapiens; A549 cells, SRB method, 48 hours; read-out: ED50, cytotoxic activity against A549. In short, it runs like this: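 Cells seeded at 8×10^4 per well, attached 24 h, then exposed 48 h to six log-spaced concentrations in triplicate. TCA-fixed, SRB-stained, OD read at 520 nm; growth inhibition computed relative to time-zero and untreated counts, IC50 from regression.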

The next test deals with S-180 sarcoma cells. In words: Animal experiment using Sarcoma S-180 cells (survival of mouse). Type of test: in vivo, male ICR mouse. The following applies: for responders at 15 µmol/kg / responders at 10 µmol/kg: 1200 h; for responders at 15 µmol/kg / response vs control in vivo at 15 µmol/kg: daily dose 15 μmole (mg/kg/day given per compound); for response vs control in vivo at 15 µmol/kg / response vs control in vivo at 10 µmol/kg: read-out: T/C. In short, it runs like this:
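Male ICR mice (20 to 25 g) received intraperitoneal transplants of 0.1 ml S-180 cell suspension (10^7 cells/ml), prepared from ascites by washing in cold physiological saline. After 24 hours, groups of 8 to 9 mice received 7 to 8 ip injections of sample in dimethylsulfoxide diluted with saline. Controls got 2% dimethylsulfoxide-saline. Survival (T/C, %) was scored against control death.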

Where [1] appears, read: ip, S-180 ICR mouse, intraperitoneal, 7 to 8 injections, read-out: Number of mouse survived for 50 days (converted).
Where [2] appears, read: ip, S-180 ICR mouse, intraperitoneal, 7 to 8 injections.
The mark [3] stands for this setting: ip, S-180 ICR mouse, intraperitoneal, daily dose 10 μmole (mg/kg/day given per compound), 7 to 8 injections, read-out: Number of mouse survived for 50 days (converted).
[4] abbreviates: ip, S-180 ICR mouse, intraperitoneal, daily dose 10 μmole (mg/kg/day given per compound), 7 to 8 injections.

Molecules are shown by their SMILES. Values after ≈ are worked out from the molar mass of the structure shown. Read-outs that look alike come from different tables or passages of the source.

As to `CC(C)=CCC(OC(=O)/C=C(C)/C=C/C=C(C)/C=C/C1=C(C)CCCC1(C)C)C1=CC(=O)c2c(O)ccc(O)c2C1=O` (stereo not drawn) [2-[1-trans-retinoyloxy)-4-methyl-3-pentenyl]-5,8-dihydroxy-1,4-naphthoquinone], the IC50 in the test on L1210 cells was 3.1 µg/mL (≈ 5.43 µM); with HL-60 cells, 4.3 µg/mL (≈ 7.53 µM); in the test on A549 cancer cells it was more than 20 µg/mL. In the test with S-180 sarcoma cells (setting [1]), the responders at 15 µmol/kg is 0%. Besides, the response vs control in vivo at 15 µmol/kg in the test on S-180 sarcoma cells (setting [2]) stood at 107%.
`CC/C=C/CC(=O)OC(CC=C(C)C)C1=CC(=O)c2c(O)ccc(O)c2C1=O` (stereo not drawn) [2-[1-trans-(3-hexenoyl)oxy-4-methyl-3-pentenyl]-5,8-dihydroxy-1,4-naphthoquinone]: the IC50 came to 0.3 µg/mL (≈ 0.78 µM) in the test on L1210 cells, 0.9 µg/mL (≈ 2.34 µM) in the test on HL-60 cells and 3.3 µg/mL (≈ 8.58 µM) with A549 cancer cells. Also, in the test on S-180 sarcoma cells (setting [3]), the responders at 10 µmol/kg is 25%. Besides, the response vs control in vivo at 10 µmol/kg in the test on S-180 sarcoma cells (setting [4]) turned out to be 200%.
For `C=CCC/C=C/C(=O)OC(CC=C(C)C)C1=CC(=O)c2c(O)ccc(O)c2C1=O` (stereo not drawn) [2-[1-(trans-2,6-heptadienoyloxy)-4-methyl-3-pentenyl]-5,8-dihydroxy-1,4-naphthoquinone] the same measures were 1.3 µg/mL (≈ 3.28 µM), 0.9 µg/mL (≈ 2.27 µM), 3.8 µg/mL (≈ 9.59 µM), 12.5% and 180%.
The corresponding values for `CCCC(=O)OC(CC=C(C)C)C1=CC(=O)c2c(O)ccc(O)c2C1=O` (stereo not drawn) [2-(1-n-butanoyloxy-4-methyl-3-pentenyl)-5,8-dihydroxy-1,4-naphthoquinone] are 0.01 µg/mL (≈ 0.0279 µM), 0.1 µg/mL (≈ 0.279 µM), 2.5 µg/mL (≈ 6.98 µM), 0% and 181%.
As for `CC(C)=CCC(OC(=O)C(c1ccccc1)c1ccccc1)C1=CC(=O)c2c(O)ccc(O)c2C1=O` (stereo not drawn) [2-(1-diphenylacetyloxy-4-methyl-3-pentenyl)-5,8-dihydroxy-1,4-naphthoquinone], the IC50 in the test on L1210 cells was determined as 0.2 µg/mL (≈ 0.414 µM); in the test with HL-60 cells, 0.4 µg/mL (≈ 0.829 µM); in the test with A549 cancer cells it was 6.3 µg/mL (≈ 13.1 µM). In the test with S-180 sarcoma cells (setting [1]), the responders at 15 µmol/kg is 25%. For the same molecule, the response vs control in vivo at 15 µmol/kg with S-180 sarcoma cells (setting [2]) was 208%.
`CCCCCCCCCC(=O)OC(CC=C(C)C)C1=CC(=O)c2c(O)ccc(O)c2C1=O` (stereo not drawn) [2-(1-n-decanoyloxy-4-methyl-3-pentenyl)-5,8-dihydroxy-1,4-naphthoquinone]: the IC50 in the test with L1210 cells amounted to 0.7 µg/mL (≈ 1.58 µM); in the test with HL-60 cells it was 1.1 µg/mL (≈ 2.49 µM); with A549 cancer cells it was 15 µg/mL (≈ 33.9 µM). For the same molecule, in the test on S-180 sarcoma cells (setting [1]), the responders at 15 µmol/kg was 0%. The response vs control in vivo at 15 µmol/kg in the test with S-180 sarcoma cells (setting [2]) is 110%.
With `CC(C)=CCC(OC(=O)CCl)C1=CC(=O)c2c(O)ccc(O)c2C1=O` (stereo not drawn) [2-(1-monochloroacetyloxy-4-methyl-3-pentenyl)-5,8-dihydroxy-1,4-naphthoquinone], the IC50 was 0.12 µg/mL (≈ 0.329 µM) in the test with L1210 cells, 0.3 µg/mL (≈ 0.822 µM) in the test on HL-60 cells and 4 µg/mL (≈ 11 µM) in the test with A549 cancer cells. For the same molecule, the responders at 10 µmol/kg with S-180 sarcoma cells (setting [3]) is 0%. In the test on S-180 sarcoma cells (setting [4]), the response vs control in vivo at 10 µmol/kg is 102%.
In the case of `CC(C)=CCC(OC(=O)C=C(C)C)C1=CC(=O)c2c(O)ccc(O)c2C1=O` (stereo not drawn) [2-[1-(3,3-dimethyl)acryloxy-4-methyl-3-pentenyl]-5,8-dihydroxy-1,4-naphthoquinone], the IC50 with L1210 cells was less than 0.01 µg/mL; in the test on HL-60 cells, 0.05 µg/mL (≈ 0.135 µM); in the test on A549 cancer cells it was 1.1 µg/mL (≈ 2.97 µM). Besides, the responders at 10 µmol/kg in the test on S-180 sarcoma cells (Mus musculus, S-180, ip, read-out: Number of mouse survived for 50 days) is 25%. The response vs control in vivo at 10 µmol/kg with S-180 sarcoma cells (Mus musculus, S-180, ip) came out at 179%.
Regarding `C=CCCCCC(=O)OC(CC=C(C)C)C1=CC(=O)c2c(O)ccc(O)c2C1=O` (stereo not drawn) [2-[1-(6-heptenoyl)oxy-4-methyl-3-pentenyl]-5,8-dihydroxy-1,4-naphthoquinone], the IC50 with L1210 cells was 0.2 µg/mL (≈ 0.502 µM); with HL-60 cells, 0.5 µg/mL (≈ 1.25 µM); with A549 cancer cells, 4.2 µg/mL (≈ 10.5 µM). Further, in the test with S-180 sarcoma cells (setting [3]), the responders at 10 µmol/kg is 12.5%. For the same molecule, the response vs control in vivo at 10 µmol/kg in the test on S-180 sarcoma cells (setting [4]) worked out at 192%.
